Measurements taken from patent US20230416750A1, “CATALYTIC SEQUENCE BASED METHODS OF TREATING OR PREVENTING BACTERIAL INFECTIONS” (priority 2020, published 2023).
{3CholTEG} = cholesteryl-TEG conjugate

Key:
[1] = test system: Klebsiella pneumoniae (ATCC BAA-1705); test: KP infected thigh muscle model in neutropenic mice; type: in vivo; settings: SC TID, 240 mg/kg meropenem alone or with KPC-337 16, 24 or 32 mg/kg
Procedure: Neutropenia induction: The experiments were performed on female ICR mice age 9-10 weeks. At day (−4) neutropenia induction was performed by cyclophosphamide intraperitoneal (IP) injection at 150 mg/kg and a volume of 10 mL/kg. At day (−1) neutropenia maintenance was performed by cyclophosphamide IP injection at 100 mg/kg and a volume of 10 mL/kg.
Bacterial suspension preparation: At day (−4) KP (ATCC® BAA-1705™) bacteria was streaked out from −80° C. glycerol stock onto LB medium and incubated at 37° C. for 20 hours and then stored at 2-8° C. At day (−1) single colonies of the KP (ATCC® BAA-1705™ bacteria) were picked by using an inoculation loop (Greiner, 731175) and suspended in 20 mL Tryptic Soy broth (TSB) (Hylabs, BIO-MO11) in Erlenmeyer and incubated at 37° C. overnight (=starter) with shaking at 180 rpm. In the morning of dosing day, bacterial starter was diluted in fresh TSB (total of 20 mL) and incubated for about 1-3 hours at 37° C. […] Bacterial suspension concentration was determined by McFarland (Densicheck plus, Biomerieux) and diluted in sterile PBS to a concentration of 2.2×10^7 CFU/mL. […]
Bacterial burden determination: Homogenate samples dilutions were plated on LB agar plates at various dilutions to determine the colony forming units (CFUs). Plates were incubated overnight (at 37° C.), and bacterial burden was calculated and expressed as CFUs/gram of tissue.

[2] = test system: Klebsiella pneumoniae strain ATCC BAA-1705; test: Galleria mellonella virulence assay (larvae viability); type: in vivo; settings: infected G. mellonella larvae
Procedure: Larvae virulence experiments were performed in the facilities of Pharmaseed LTD (Ness Ziona, Israel). G. larvae were obtained from BioSystems Technologies (Exeter, UK) and stored in the shipment boxes at 15° C. for two weeks or at room temperature for immediate use with no requirement of food. Larvae were randomly selected from a large batch for an approximate weight of 250±25 mg. Larvae were separated from sawdust and selected for plumped, lighter colored worms. Darker colored, dehydrated worms, were discarded. Each treatment group (20 larvae per group) contained 10 larvae placed in a 10 cm empty Petri dish (2 dishes per treatment group), on a filter paper.
Bacterial inoculums were prepared from cultures grown overnight at 37° C. in TSB medium (HyLabs, Israel) and washed with sterile 1×PBS. Bacterial suspension concentration was determined by McFarland (Densicheck plus, Biomerieux) and diluted in sterile PBS to receive 10^9 CFU/mL. Serial dilutions of the bacterial suspensions were made and spots were plated on blood agar plates. The plates were incubated at 37° C. and on the next day CFU was counted in order to determine final injected bacterial concentrations.
Each larva was initially injected with 5×10^5 cells into the proleg. A second injection to the proleg was done with meropenem (10 μg/g), meropenem+DNAzyme (8.52 μg/g) or sterile PBS. […]

[3] = test system: β-lactamase; settings: DNAzyme 1.25 M (so in the source) with 128 μg/ml meropenem, 1 h; vs untreated control
Procedure: Bacterial strains were streaked from frozen LB+glycerol stocks onto LB agar plates and incubate for 24 hours at 37° C. Single colonies were grown overnight at 37° C. in 3 ml of LB. Cultures were diluted 1:1000 in 2 ml LB supplemented with 128 μg/ml meropenem and DNAzyme were added to a final concentration of 1.25 M. Cultures were incubated at 37° C. with continuous shaking for 1 h. Measurement of the β-lactamase activity assay was done using colorimetric kit (abcam), according to the manufacture's protocol.

[4] = test system: Klebsiella pneumoniae ATCC BAA-1705; test: Growth assays / MIC / viability (OD600, CFU) with meropenem; type: cell-based
Procedure: Cultures were incubated at 37° C. with continuous shaking and the optical density OD600 was recorded every 30 minutes using Ultrospec 10 (biochrom). Viability was tested by serial dilutions (1:100) of the bacterial suspensions and spots were plated on LB plates. The plates were incubated at 37° C. and on the next day CFU was counted to determine culture viability.

[5] = test system: HT-29 cells; type: cell-based; settings: HT-29 human colorectal adenocarcinoma cells, 72 hours; read-out: IC50 of toxicity
Procedure: HT-29 cells (ATCC) were seeded in 24-well plates at 200,000 cells per well. DNAzyme were added to the medium at different concentrations. After 72 hours, PrestoBlue reagent (A13262, Life Technologies Ltd.) was added as a cell viability indicator.

[6] = test system: bla-KPC RNA transcripts; test: Bla-KPC quantification from bacterial cells (qPCR); type: cell-based; settings: DNAzyme 1.25 μM with sub-toxic meropenem (128 μg/ml), 20 minutes; vs untreated control
Procedure: Total RNA was extracted from each sample using RNeasy Mini Kit (Qiagen), according to the manufacturer's instructions. The concentration, purity, and integrity of total RNA was determined using NanoDrop and gel electrophoresis. cDNA synthesis was performed using iScript™ cDNA synthesis (Bio-Rad) according to the manufacturer's instructions. Equal amounts of total RNA (1000 ng/20 μL) were reverse-transcribed in all samples. Reactions were incubated in a CFX96 Touch Real-Time PCR detection system (Bio-Rad) by the following program: 25° C. for 5 minutes, 46° C. for 20 minutes, 95° C. for 60 seconds. Bla-KPC expression was determined by qPCR, with primers designed using NCBI primer-BLAST. qPCR analysis was performed using the iTaq Universal SYBR Green Supermix (Bio-Rad) according to the manufacturer's instructions, in a CFX96 system by the following program: 95° C. for 3 minutes, 39 cycles of 95° C. for 10 seconds and 55° C. for 30 seconds. Melt curves were generated for each sample by heating PCR amplicons from 65° C. to 95° C. with a gradual increase of 0.5° C./0.5 s.

[7] = test system: Klebsiella pneumoniae; test: Lung ex-vivo infection model (mouse lung punches, CFU); type: cell-based; settings: sub-toxic meropenem alone or with DNAzyme/scramble; 24 hours
Procedure: Lungs were harvested from 5-10 mice (C57BL/6, 6-8 weeks old) and placed in petri dishes containing DMEM 5% FCS. The tissue was divided into circular pieces 3 mm in diameter with a biopsy punch and transferred to poly-propanol tubes with 3 ml DMEM. DMEM was applied with meropenem and DNAzymes, as indicated. To each respective tube 10 μl of mid-logarithmic Klebsiella pneumoniae culture was added—with three technical repeats for each condition. The plates were incubated at 37° C. for approximately 1 days (24 hours), washed twice with PBS.
For CFU of bacteria infecting ex vivo tissue culture: individual punches or their growth media were collected, Punches were resuspended in 1 ml PBS (Biological Industries), and free-living bacteria were pelleted and resuspended in PBS at the same volume. Samples were thoroughly vortexed (5 min). The samples were then mildly manually crushed using 1.5 ml pestle. In all cases, to determine the number of viable cells, samples were serially diluted in PBS, plated on LB plates, and colonies were counted after incubation at 37° C. overnight.

Compound | reduction of bacterial load in the infection site [1] | larvae viability ([2]; sub-toxic meropenem 10 μg/g with DNAzyme (8.52 μg/g)) [%] | reduction of β-lactamase activity [3] [%] | growth inhibitory effect (optical density) ([4]; combination of subtoxic meropenem concentration and DNAzyme) | effect on viability of the bacterial cells (cell counts over time) ([4]; combined treatment of meropenem and DNAzyme) | reduction of MIC levels ([4]; meropenem MIC with vs without DNAzyme) | MIC of meropenem ([4]; with addition of DNAzyme KPC-337) [µg/mL] | IC50 [5] [µM] | reduction of transcript levels of bla-KPC [6] | reduction of capacity of the bacteria to infect and colonize lung tissue (bacterial load in the tissue) [7] | reduction of the free-living cells that remained in the growth media [7] | reduction of the viability of the larvae ([2]; sub-toxic meropenem 10 μg/g alone or with scramble) [%] | MIC ([4]; Klebsiella pneumoniae, ATCCBAA1705, without DNAzyme) [µg/mL]
GCCTGTTGggctagctacaacgaCAGATATTT/3CholTEG/ (GCCTGTTGGGCTAGCTACAACGACAGATATTT; 3' {3CholTEG}, sugars by position and backbone not given here) [KPC-337, DNAzyme targeting bla carbapenemase of Klebsiella pneumoniae] | 2-3 log fold | 100 | 70 | complete arrest of growth | bactericidal | two fold | 128 | 20 | two fold | 1.5-2 fold | 1-1.5 fold change | – | –
C[C@@H](O)[C@H]1C(=O)N2C(C(=O)O)=C(S[C@@H]3CN[C@H](C(=O)N(C)C)C3)[C@H](C)[C@H]12 [meropenem, reference compound] | slightly reduced the bacterial load | – | – | – | – | – | – | – | – | did not reduced the bacterial load | did not reduced the bacterial load | 40 | 256
